One may read the inhibition as the drop in the measured response relative to a control, in per cent.

The source of these data is US7582424B2 (priority 2000, dated 2009).

The test system of one assay is T84 cell monolayers. It is filed as cell-based, human.
Assay [1] deals with Ace-induced Isc response by T84 cell monolayers. The assay is described as follows: cells. It is filed as cell-based, human.
Another assay has as its system polarized T84 cells. The settings on record: cited from earlier work.
The subject of assay [2] is ACE-stimulated Isc in 16HBE14o- cell monolayers. The class given is cell-based, human.
For another assay, the system named is cGMP. It is filed as cell-based.
A further assay deals with chloride secretion. The settings on record: cited from earlier work.
The next assay deals with cAMP. The class given is cell-based.

Turning to `C/C=C(/C)C(=O)O[C@H]1C(C)=C2[C@H]([C@@H]1OC(=O)CCCCCCC)[C@@](C)(OC(C)=O)C[C@H](OC(=O)CCC)[C@@]1(O)[C@H]2OC(=O)[C@@]1(C)O` [thapsigargin], the “mean peak Isc, agent alone” value in the assay on T84 cell monolayers is recorded as 10.2±4.3.

For the compound `CCCCNc1cc(C(=O)O)cc(S(N)(=O)=O)c1Oc1ccccc1` [bumetanide], in the assay with T84 cell monolayers, the “effect by itself on Isc or PD” value is recorded as “no effect”. Besides, the “effect on Ace action when added after Ace” value in assay [1] is recorded as “reverses”. Also, the inhibition at 100 µM in assay [1] (Homo sapiens, T84, read-out: inhibition of the action of Ace (Isc)) is about 60%.

As to ω-conotoxin, the “effect on Ace-induced Isc response” value in assay [1] was “no significant effect”.

For `O=C1CN(/N=C/c2ccc(-c3ccc([N+](=O)[O-])cc3)o2)C(O)=N1` [dantrolene], the inhibition at 50 µM in assay [1] (Homo sapiens, T84, read-out: inhibition of Ace-induced Isc response) was about 70%.

Turning to `O=S(=O)(O)c1cc(N=C=S)ccc1C=Cc1ccc(N=C=S)cc1S(=O)(=O)O.[Na]` [DIDS, 4,4′-diisothiocyanostilbene-2,2′-disulfonic acid, sodium], in the assay on polarized T84 cells, the “inhibition of forskolin-induced Isc response” value is listed as 40% and the “inhibition of thapsigargin-induced Isc response” value is on record as 100%. Moreover, the “decrease in ACE-stimulated Isc” value in assay [2] is 40%. Also, the inhibition at 500 µM in assay [1] (Homo sapiens, T84, read-out: inhibition of the Ace-induced Isc response) worked out at 50%.

For the compound `C[C@@H]1O[C@@H](O[C@H]2C[C@@H](O)[C@]3(CO)[C@H]4[C@H](O)C[C@]5(C)[C@@H](C6=CC(=O)OC6)CC[C@]5(O)[C@@H]4CC[C@]3(O)C2)[C@H](O)[C@H](O)[C@H]1O` [ouabain], the “effect on Ace-induced Isc” value in assay [1] was “inhibits and reverses”.

For the compound `C=C[C@@]1(C)CC(=O)[C@]2(O)[C@@]3(C)[C@@H](O)CCC(C)(C)[C@@H]3[C@H](O)[C@H](OC(C)=O)[C@@]2(C)O1` [forskolin], the “effect on cellular cGMP” value with cGMP is “no effect”. Further, in the assay with T84 cell monolayers, the “mean peak Isc, forskolin followed by carbachol” value is listed as 69.3±2.4 μAmps/cm^2; the “predicted additive effect, forskolin and carbachol, mean peak Isc” value was 49.0±2.9.

With `COc1ccc(CCN(C)CCCC(C#N)(c2ccc(OC)c(OC)c2)C(C)C)cc1OC` (centres unmarked) [verapamil], the “effect on Ace-induced Isc response” value in assay [1] is listed as “no significant effect”.

In the case of `CC(=O)OCOC(=O)CN(CC(=O)OCOC(C)=O)c1ccccc1OCCOc1ccccc1N(CC(=O)OCOC(C)=O)CC(=O)OCOC(C)=O` [BAPTA, 1,2-bis(2-aminophenoxy)ethane-N,N,N′,N′-tetraacetic acid (BAPTA)-AM], the “effect on Ace-induced Isc” value in assay [1] is “near ablation”.

Regarding `Clc1ccccc1C(c1ccccc1)(c1ccccc1)n1ccnc1` [clotrimazole], in assay [1], the “reduction in Ace-stimulated Isc” value was determined as 92%. Moreover, in the assay with chloride secretion, the “inhibition of carbachol-dependent secretion” value was 84%.

On to NPPB, for which the “decrease in ACE-stimulated Isc” value in assay [2] is recorded as about 80%.

Take `O=c1c(-c2ccc(O)cc2)coc2cc(O)cc(O)c12` [genistein]: in assay [1], the “effect on the Isc response to Ace” value is given as “no effect”.

Consider `C[N+](C)(C)CCOC(N)=O` [carbachol], for which, in the assay with cGMP, the “effect on cellular cGMP” value is recorded as “no significant effect”. Further, in the assay on T84 cell monolayers, the “effect of carbachol pretreatment on thapsigargin-induced chloride secretion (Isc response)” value is on record as “blocks”; the “peak Isc, agent alone” value is reported as 9.8±1.1 μAmp/cm^2; the “return of Isc nearly to baseline” value is at most 10 min; the “time of peak Isc, agent alone” value is 4 min. Besides, the “effect on cellular cAMP” value with cAMP is “no significant effect”.
